The subject of experiment [1] is cell adhesion molecules (ICAM-1 and VCAM-1). The experiment can be described thus: Western blotting, protein expression of cell adhesion molecules in isolated microvessels of diabetic mice. Format: in vivo. To be noted: cortex and hippocampus microvessels, GSNO vs untreated diabetic group. As to the method: Male laca mice weighing between 28-32 g were procured from the Central Animal House, Panjab University, Chandigarh. The animals were acclimatized and were fed with standard pellet diet and water ad libitum. The experimental protocols were approved by the Institutional Ethics Committee and were conducted according to Indian National Science Academy (INSA) guidelines for the use and care of experimental animals. The animals were divided into four groups: (i) Control animals received phosphate buffered saline (PBS) throughout the study; (ii) Control+GSNO animals were administered with GSNO 100 μg/kg body weight orally, dissolved in PBS after every 24 h for 8 weeks; (iii) Diabetic animals were injected with STZ at a dose of 40 mg/kg body weight intraperitoneally for 5 days dissolved in 0.1 mol/L citrate buffer, pH 4.5 and Diabetic+GSNO mice were administered GSNO 100 μg/kg body weight orally dissolved in PBS after every 24 h for 8 weeks after the induction of diabetes. Animals were assessed weekly for development of diabetic encephalopathy in terms of memory deficits. All experimental procedures were done on mice at the end of study. The microvessels were isolated by the method described by Brooks et al., (2005). […]

Experiment [2] deals with CD4+ T cells. The experiment can be described thus: Ex vivo culture of PLP139-151 immunized T cells from EAE mice, cytokine ELISA. In kind it is in vivo, SJL mice. For orientation: In an ELISA, binding on a coated surface is turned into a signal by an enzyme label.
The mark [3] stands for this setting: T cells from GSNO (1.0 mg/kg daily from immunization) treated vs untreated EAE mice, TH0 condition.
The mark [4] stands for this setting: T cells from GSNO treated vs untreated EAE mice.

With `N[C@@H](CCC(=O)N[C@@H](CSN=O)C(=O)NCC(=O)O)C(=O)O` [GSNO, S-nitrosoglutathione], in experiment [1], the “protein expression of ICAM-1” value is “significantly mitigate” and the “protein expression of VCAM-1” value is recorded as “significantly mitigate”. Further, in experiment [2] (setting [3]), the “IFN-γ production of T cells in response to PLP139-151 stimulation” value is on record as “comparable levels” and the “IL-17 production of T cells in response to PLP139-151 stimulation” value is “significantly lower levels”. In experiment [2] (setting [4]), the “GM-CSF production under TH1 and TH17 skewing conditions” value is “similarly increased levels”; the “IFN-γ production under TH1 skewing conditions” value is listed as “comparable amounts”; the “IL-10 production under TH1 and TH17 skewing conditions” value was “significantly higher amounts”; the “IL-17 production under TH17 skewing conditions” value is given as “EAE group produced higher levels of IL-17 than T cells isolated from GSNO+ EAE group”.

Values taken from patent publication US10925858B2, “S-nitrosoglutathione (GSNO) and GSNO reductase inhibitors for use in therapy” (MUSC FOUNDATION FOR RESEARCH DEVELOPMENT, priority 2017, dated 2021).
